Key:
[1] = Radiometabolite analysis in rat plasma (radio-HPLC); format: in vivo; conditions: rats
Protocol: (§1) The promising pharmacological, pharmacokinetic, and in vitro autoradiographic data encouraged us to carry out preliminary dynamic PET imaging studies of [^11C]3 and [^18F]4. […] Given the superiority of fluorine-18 such as clean positron emission, low positron range, and relatively long half-life compared with carbon-11, [^18F]4 was subjected to further investigation (Figure 6). A blocking scan was carried out with intravenous administration of compound 3 (1 mg/kg) prior to tracer injection. For both baseline and blocking studies, blood samples were extracted from the artery. Both whole-blood and plasma radioactivity concentrations were evaluated, and radiometabolites were measured in plasma samples by radio high-performance liquid chromatography (HPLC) to generate metabolite-corrected input function (Figure S2). Compartmental analyses with one- and two-tissue compartment models (1TCM and 2TCM) were carried out on regional time–activity curves. […] In the baseline study, VT of various brain regions ranged from 2.2 to 2.9 mL/cm^3, confirming the high binding of the radiotracer.

LRRK2 [2] = molecular target: T1, LRRK2 (Rattus norvegicus, UniProt F1LNJ1); assay: PET imaging in rats with arterial blood sampling (2TCM, VT); format: in vivo; conditions: compound 3 (1 mg/kg) i.v. prior to tracer injection
T1 construct: from tissue; host or cells: rat brain (Sprague-Dawley rats)
T1 sequence (F1LNJ1 1-2526): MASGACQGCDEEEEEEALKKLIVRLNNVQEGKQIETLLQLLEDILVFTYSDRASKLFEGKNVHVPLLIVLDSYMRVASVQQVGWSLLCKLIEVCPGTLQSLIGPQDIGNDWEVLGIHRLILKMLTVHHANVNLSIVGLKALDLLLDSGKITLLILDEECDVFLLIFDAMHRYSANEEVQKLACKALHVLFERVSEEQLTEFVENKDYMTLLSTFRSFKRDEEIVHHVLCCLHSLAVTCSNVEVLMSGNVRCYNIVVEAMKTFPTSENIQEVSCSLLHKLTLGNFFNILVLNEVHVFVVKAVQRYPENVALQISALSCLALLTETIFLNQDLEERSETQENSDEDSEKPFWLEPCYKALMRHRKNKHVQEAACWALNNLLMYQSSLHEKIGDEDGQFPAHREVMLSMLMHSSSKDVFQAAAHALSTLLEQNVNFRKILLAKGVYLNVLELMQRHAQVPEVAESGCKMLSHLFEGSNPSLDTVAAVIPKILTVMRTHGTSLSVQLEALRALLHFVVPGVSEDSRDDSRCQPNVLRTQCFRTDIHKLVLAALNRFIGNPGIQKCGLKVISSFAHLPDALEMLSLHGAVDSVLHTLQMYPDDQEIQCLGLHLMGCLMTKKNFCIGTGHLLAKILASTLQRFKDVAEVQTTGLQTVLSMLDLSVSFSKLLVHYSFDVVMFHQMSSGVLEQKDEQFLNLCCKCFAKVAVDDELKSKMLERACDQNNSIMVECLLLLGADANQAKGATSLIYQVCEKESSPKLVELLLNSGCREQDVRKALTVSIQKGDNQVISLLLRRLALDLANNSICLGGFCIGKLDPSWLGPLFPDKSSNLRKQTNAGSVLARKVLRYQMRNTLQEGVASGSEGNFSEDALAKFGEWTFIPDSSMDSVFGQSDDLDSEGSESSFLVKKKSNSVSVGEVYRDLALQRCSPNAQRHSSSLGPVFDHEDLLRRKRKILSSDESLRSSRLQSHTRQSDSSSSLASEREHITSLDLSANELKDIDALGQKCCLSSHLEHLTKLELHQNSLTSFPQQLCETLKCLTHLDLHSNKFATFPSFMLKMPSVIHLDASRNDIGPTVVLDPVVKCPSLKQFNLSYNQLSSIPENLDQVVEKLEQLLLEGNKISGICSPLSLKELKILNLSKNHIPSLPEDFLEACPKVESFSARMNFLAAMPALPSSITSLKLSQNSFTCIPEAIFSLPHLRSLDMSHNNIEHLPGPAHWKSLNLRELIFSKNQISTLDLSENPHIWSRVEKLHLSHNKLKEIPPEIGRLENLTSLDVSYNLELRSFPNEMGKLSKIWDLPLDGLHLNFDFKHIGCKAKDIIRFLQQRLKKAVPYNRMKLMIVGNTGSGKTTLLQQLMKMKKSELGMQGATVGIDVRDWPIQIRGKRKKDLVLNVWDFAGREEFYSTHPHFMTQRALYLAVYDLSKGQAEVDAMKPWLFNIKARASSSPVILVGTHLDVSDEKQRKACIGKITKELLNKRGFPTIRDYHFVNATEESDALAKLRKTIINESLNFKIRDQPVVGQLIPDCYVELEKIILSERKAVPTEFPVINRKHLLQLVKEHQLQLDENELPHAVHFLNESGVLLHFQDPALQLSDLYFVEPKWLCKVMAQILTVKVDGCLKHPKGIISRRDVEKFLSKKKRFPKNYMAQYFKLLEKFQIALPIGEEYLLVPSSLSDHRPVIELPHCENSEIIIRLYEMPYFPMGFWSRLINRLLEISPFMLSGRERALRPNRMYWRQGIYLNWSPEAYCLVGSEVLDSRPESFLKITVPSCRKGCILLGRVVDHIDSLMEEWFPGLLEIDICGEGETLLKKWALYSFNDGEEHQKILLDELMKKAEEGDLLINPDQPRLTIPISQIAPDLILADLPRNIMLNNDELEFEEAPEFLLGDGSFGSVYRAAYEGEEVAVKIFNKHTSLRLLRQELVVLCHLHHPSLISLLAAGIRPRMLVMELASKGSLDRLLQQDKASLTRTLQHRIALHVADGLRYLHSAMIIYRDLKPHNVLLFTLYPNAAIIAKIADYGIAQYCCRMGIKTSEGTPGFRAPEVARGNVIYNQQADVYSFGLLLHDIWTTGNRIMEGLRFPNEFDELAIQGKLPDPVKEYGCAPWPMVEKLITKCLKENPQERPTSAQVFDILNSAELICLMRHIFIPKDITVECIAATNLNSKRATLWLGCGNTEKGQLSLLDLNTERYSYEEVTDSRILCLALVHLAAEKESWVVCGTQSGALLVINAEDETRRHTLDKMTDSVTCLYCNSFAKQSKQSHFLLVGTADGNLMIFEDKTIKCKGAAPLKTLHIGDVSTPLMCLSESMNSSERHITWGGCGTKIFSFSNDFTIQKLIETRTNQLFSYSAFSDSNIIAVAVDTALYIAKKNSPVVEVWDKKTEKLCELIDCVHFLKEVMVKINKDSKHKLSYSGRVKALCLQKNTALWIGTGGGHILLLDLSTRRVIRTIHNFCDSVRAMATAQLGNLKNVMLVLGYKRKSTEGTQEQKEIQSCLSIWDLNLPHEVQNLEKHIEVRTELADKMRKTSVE
Protocol: as §1
The general procedure for PET studies was described previously[35],[41] with minor modification in this work. […] The radioactivity was decay-corrected and expressed as the standard uptake value: SUV = (radioactivity per mL tissue/injected radioactivity) × body weight.

[3] = Ex vivo whole-body biodistribution in mice; set-up: species or system CD-1 mice; conditions: for Ex vivo biodistribution: mean ± SD, n = 4
Protocol: The general procedure for ex vivo biodistribution studies was described previously[35],[41] with minor modification in this work. Briefly, a solution of [^18F]4 (50 μCi/100 μL) was injected into CD-1 mice via tail vein. These mice (each time point n = 4) were sacrificed at 5, 15, 30, and 60 min post tracer injection. Major organs, including whole brain, heart, liver, lung, spleen, kidneys, small intestine (including contents), muscle, and blood samples, were quickly harvested and weighted. The radioactivity present in these tissues was measured using a Cobra Model 5002/5003 γ counter, and all radioactivity measurements were automatically decay-corrected based on the half-life of fluorine-18. The results are expressed as the percentage of injected dose per gram of wet tissue (%ID/g).

LRRK2 [4] = molecular target: T2, LRRK2 (Mus musculus, UniProt Q5S006); assay: PET imaging in LPS-injected neuroinflammatory mouse model; format: in vivo; conditions: brain, LPS-injected mice versus sham group (PBS)
T2 construct: from tissue; host or cells: brain of living CD-1 mice, i.c.v; LPS or saline
T2 sequence (Q5S006 whole entry): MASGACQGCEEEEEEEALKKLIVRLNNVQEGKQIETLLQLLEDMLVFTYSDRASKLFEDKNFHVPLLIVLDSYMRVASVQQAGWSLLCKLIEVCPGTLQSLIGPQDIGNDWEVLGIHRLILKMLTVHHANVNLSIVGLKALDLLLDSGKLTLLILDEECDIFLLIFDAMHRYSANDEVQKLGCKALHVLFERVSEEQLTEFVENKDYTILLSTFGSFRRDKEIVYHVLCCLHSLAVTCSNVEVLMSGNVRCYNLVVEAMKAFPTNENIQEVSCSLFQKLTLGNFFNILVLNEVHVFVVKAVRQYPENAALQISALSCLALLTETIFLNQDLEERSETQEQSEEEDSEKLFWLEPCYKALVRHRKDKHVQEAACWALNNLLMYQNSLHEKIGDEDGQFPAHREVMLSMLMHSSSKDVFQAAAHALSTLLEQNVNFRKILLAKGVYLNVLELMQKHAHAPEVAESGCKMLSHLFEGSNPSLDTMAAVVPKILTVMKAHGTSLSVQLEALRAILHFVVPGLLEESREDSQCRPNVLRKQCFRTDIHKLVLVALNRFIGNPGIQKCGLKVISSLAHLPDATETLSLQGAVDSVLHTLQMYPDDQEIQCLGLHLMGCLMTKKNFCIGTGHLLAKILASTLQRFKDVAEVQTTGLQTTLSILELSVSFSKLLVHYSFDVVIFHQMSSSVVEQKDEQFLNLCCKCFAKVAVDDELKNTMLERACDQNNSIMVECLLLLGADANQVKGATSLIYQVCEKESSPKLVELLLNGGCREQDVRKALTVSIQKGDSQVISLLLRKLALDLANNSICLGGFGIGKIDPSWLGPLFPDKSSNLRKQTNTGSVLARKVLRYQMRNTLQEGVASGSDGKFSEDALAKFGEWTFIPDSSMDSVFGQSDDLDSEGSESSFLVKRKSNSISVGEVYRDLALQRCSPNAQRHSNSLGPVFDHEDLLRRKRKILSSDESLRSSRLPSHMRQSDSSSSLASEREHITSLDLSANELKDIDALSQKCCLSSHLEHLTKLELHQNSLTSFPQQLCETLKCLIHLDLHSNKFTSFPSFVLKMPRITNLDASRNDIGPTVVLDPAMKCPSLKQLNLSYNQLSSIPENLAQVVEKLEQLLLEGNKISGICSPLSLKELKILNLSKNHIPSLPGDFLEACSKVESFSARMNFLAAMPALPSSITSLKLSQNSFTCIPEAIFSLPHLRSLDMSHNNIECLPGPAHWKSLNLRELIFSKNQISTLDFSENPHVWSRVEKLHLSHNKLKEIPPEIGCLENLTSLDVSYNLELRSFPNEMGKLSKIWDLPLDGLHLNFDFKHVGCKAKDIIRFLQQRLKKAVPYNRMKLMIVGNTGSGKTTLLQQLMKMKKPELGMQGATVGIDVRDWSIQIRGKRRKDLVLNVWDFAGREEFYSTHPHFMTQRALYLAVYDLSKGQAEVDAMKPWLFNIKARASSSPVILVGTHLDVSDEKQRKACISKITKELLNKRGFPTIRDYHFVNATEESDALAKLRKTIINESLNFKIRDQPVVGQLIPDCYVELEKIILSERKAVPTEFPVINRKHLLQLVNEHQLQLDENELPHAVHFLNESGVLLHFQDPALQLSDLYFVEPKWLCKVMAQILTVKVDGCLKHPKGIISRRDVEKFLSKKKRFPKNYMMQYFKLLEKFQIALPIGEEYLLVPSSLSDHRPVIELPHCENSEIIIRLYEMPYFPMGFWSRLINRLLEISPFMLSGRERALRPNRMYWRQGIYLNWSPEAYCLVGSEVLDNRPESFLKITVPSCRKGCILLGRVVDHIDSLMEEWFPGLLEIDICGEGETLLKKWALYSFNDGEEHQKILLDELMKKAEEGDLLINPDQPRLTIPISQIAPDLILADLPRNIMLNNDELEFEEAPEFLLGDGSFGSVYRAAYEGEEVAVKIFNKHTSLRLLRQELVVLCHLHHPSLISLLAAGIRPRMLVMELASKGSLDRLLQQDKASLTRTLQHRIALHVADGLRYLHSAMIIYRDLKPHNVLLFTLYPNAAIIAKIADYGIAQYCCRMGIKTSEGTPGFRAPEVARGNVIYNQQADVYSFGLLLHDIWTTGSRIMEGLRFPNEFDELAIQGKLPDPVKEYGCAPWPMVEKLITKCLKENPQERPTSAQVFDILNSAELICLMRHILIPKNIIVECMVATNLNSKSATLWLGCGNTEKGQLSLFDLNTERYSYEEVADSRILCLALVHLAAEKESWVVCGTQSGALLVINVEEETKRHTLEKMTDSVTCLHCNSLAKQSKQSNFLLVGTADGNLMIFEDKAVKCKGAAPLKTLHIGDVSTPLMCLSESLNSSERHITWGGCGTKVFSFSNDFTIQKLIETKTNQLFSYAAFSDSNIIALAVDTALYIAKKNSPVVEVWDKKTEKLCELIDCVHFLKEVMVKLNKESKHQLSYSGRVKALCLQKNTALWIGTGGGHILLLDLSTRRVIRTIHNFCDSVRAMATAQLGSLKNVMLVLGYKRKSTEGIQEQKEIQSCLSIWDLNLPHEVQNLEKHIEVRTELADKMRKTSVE
Protocol: The CD-1 mice were anesthetized and secured in a stereotaxic frame. The skull was exposed and stereotaxic coordinates (−2.6 mm dorsal/ventral, −1.5 mm lateral, and −0.2 mm anterior/posterior from bregma) according to the procedure by Haley and McCormick.[43] The i.c.v. injections of 10 μg (in 2 μL of saline) of LPS and saline (control group) injections were administered using a microsyringe. The behavior of each mouse was characterized and recorded in the form of scores, including appearance, activity, level of consciousness, eyes, respiration rate, and respiration quality. Scores were determined by summing up the individual scores (Figure S10).
The general procedure for PET studies was described previously[35],[41] with minor modification in this work. Briefly, PET scans were carried out by a Genisys 4 PET scanner (Sofie Biosciences, Culver, CA). Mice were kept under anesthesia using 1–2% (v/v) isoflurane during the scan. The radiotracer (ca. 45 μCi/100 μL) was injected into the tail vein via a preinstalled catheter. A dynamic scan in 3D list mode was acquired for 60 min. The PET dynamic images were reconstructed using G4 software (Analysis Tools and System Setup/Diagnostics Tool, Sofie Biosciences). The radioactivity was decay-corrected and expressed as the standardized uptake value: SUV = (radioactivity per mL tissue/injected radioactivity) × body weight.

parent fraction in plasma ([1]; 30 min post tracer administration): 38%
parent fraction in plasma ([1]; 60 min post tracer administration): 23%
uptake in various brain regions after pretreatment of compound 3 (LRRK2 [2]): significant decrease of uptake
de-radiofluorination in vivo ([3]; biodistribution study, up to 60 min): no remarkable de-radiofluorination
Ex vivo biodistribution ([3]; blood, 5 min): 1.98 ± 0.08 %ID/g
Ex vivo biodistribution ([3]; blood, 15 min): 1.12 ± 0.16 %ID/g
Ex vivo biodistribution ([3]; blood, 30 min): 0.60 ± 0.08 %ID/g
Ex vivo biodistribution ([3]; blood, 60 min): 0.37 ± 0.09 %ID/g
Ex vivo biodistribution ([3]; bone, 5 min): 2.89 ± 2.05 %ID/g
Ex vivo biodistribution ([3]; bone, 15 min): 1.06 ± 0.23 %ID/g
Ex vivo biodistribution ([3]; bone, 30 min): 0.57 ± 0.05 %ID/g
Ex vivo biodistribution ([3]; bone, 60 min): 0.82 ± 0.22 %ID/g
Ex vivo biodistribution ([3]; brain, 5 min): 3.61 ± 0.74 %ID/g
Ex vivo biodistribution ([3]; brain, 15 min): 0.91 ± 0.21 %ID/g
Ex vivo biodistribution ([3]; brain, 30 min): 0.14 ± 0.01 %ID/g
Ex vivo biodistribution ([3]; brain, 60 min): 0.04 ± 0.01 %ID/g
Ex vivo biodistribution ([3]; heart, 5 min): 3.63 ± 0.10 %ID/g
Ex vivo biodistribution ([3]; heart, 15 min): 1.49 ± 0.17 %ID/g
Ex vivo biodistribution ([3]; heart, 30 min): 0.49 ± 0.07 %ID/g
Ex vivo biodistribution ([3]; heart, 60 min): 0.25 ± 0.03 %ID/g
Ex vivo biodistribution ([3]; kidneys, 5 min): 9.96 ± 1.01 %ID/g
Ex vivo biodistribution ([3]; kidneys, 15 min): 6.41 ± 0.76 %ID/g
Ex vivo biodistribution ([3]; kidneys, 30 min): 2.74 ± 0.12 %ID/g
Ex vivo biodistribution ([3]; kidneys, 60 min): 1.32 ± 0.15 %ID/g
Ex vivo biodistribution ([3]; liver, 5 min): 24.68 ± 10.36 %ID/g
Ex vivo biodistribution ([3]; liver, 15 min): 15.53 ± 2.40 %ID/g
Ex vivo biodistribution ([3]; liver, 30 min): 7.34 ± 0.78 %ID/g
Ex vivo biodistribution ([3]; liver, 60 min): 3.97 ± 1.30 %ID/g
Ex vivo biodistribution ([3]; lungs, 5 min): 8.88 ± 2.99 %ID/g
Ex vivo biodistribution ([3]; lungs, 15 min): 5.46 ± 2.28 %ID/g
Ex vivo biodistribution ([3]; lungs, 30 min): 2.86 ± 0.67 %ID/g
Ex vivo biodistribution ([3]; lungs, 60 min): 1.65 ± 0.35 %ID/g
Ex vivo biodistribution ([3]; muscle, 5 min): 2.34 ± 1.06 %ID/g
Ex vivo biodistribution ([3]; muscle, 15 min): 2.04 ± 2.24 %ID/g
Ex vivo biodistribution ([3]; muscle, 30 min): 0.38 ± 0.11 %ID/g
Ex vivo biodistribution ([3]; muscle, 60 min): 0.39 ± 0.40 %ID/g
Ex vivo biodistribution ([3]; pancreas, 5 min): 16.19 ± 1.99 %ID/g
Ex vivo biodistribution ([3]; pancreas, 15 min): 5.75 ± 2.56 %ID/g
Ex vivo biodistribution ([3]; pancreas, 30 min): 1.26 ± 0.25 %ID/g
Ex vivo biodistribution ([3]; pancreas, 60 min): 0.76 ± 0.55 %ID/g
Ex vivo biodistribution ([3]; small intestine, 5 min): 58.87 ± 18.10 %ID/g
Ex vivo biodistribution ([3]; small intestine, 15 min): 58.62 ± 13.63 %ID/g
Ex vivo biodistribution ([3]; small intestine, 30 min): 20.55 ± 17.97 %ID/g
Ex vivo biodistribution ([3]; small intestine, 60 min): 26.44 ± 36.34 %ID/g
Ex vivo biodistribution ([3]; spleen, 5 min): 4.38 ± 0.99 %ID/g
Ex vivo biodistribution ([3]; spleen, 15 min): 2.12 ± 1.24 %ID/g
Ex vivo biodistribution ([3]; spleen, 30 min): 0.52 ± 0.07 %ID/g
Ex vivo biodistribution ([3]; spleen, 60 min): 0.39 ± 0.29 %ID/g
initial radioactive signals in peripheral organs ([3]; spleen, heart, lungs, pancreas, stomach, small intestine, kidneys, liver): > 4 %ID/g
Ex vivo biodistribution ([3]; stomach, 5 min): 5.72 ± 2.69 %ID/g
Ex vivo biodistribution ([3]; stomach, 15 min): 5.69 ± 1.06 %ID/g
Ex vivo biodistribution ([3]; stomach, 30 min): 7.88 ± 5.2 %ID/g
Ex vivo biodistribution ([3]; stomach, 60 min): 2.41 ± 1.31 %ID/g
increase of radioactivity based on the AUCs (LRRK2 [4]): 28%
Structure (SMILES): N#Cc1cccc(-c2c[nH]c3ncnc(N4CCOCC4)c23)c1[18F] [[^18F]4]

— paper PMC10895652, “Preclinical Evaluation of Novel Positron Emission Tomography (PET) Probes for Imaging Leucine-Rich Repeat Kinase 2 (LRRK2)” (Journal of Medicinal Chemistry, 2024)
